Results: patent US5719291A, “Cyclohexane derivatives” (Hoffmann-La Roche Inc., priority 1991, dated 1998)
≈ marks a conversion by molar mass, not a printed value. Counter-ions that a name gives are not always drawn.

How the values were obtained:
Test in all cases: In vitro antifungal activity, MIC (Method A)
Assay type in all cases: cell-based
Aspergillus fumigatus = details: 3 days, 27° C.; for MIC: Aspergillus fumigatus, 72 h; for Antifungal activity MIC: 1×10^5 cells/ml, pH 7.0
Protocol: (§1) The in vitro antifungal activities of representative compounds of the present invention were measured by determining the minimal inhibitory concentration (MIC), which is the concentration of an antifungal at which no fungal growth can be observed.
(§2) The MICs were determined by the microbroth dilution procedure according to NCCLS with the following minor modifications (Galgiani et al., Antimicrob. Agents Chemother., 33, 731 (1989). The medium was solidified with 0.2% low melting point agarose and buffered to pH 7.0 with 0.25%: K2 HPO4 in Yeast Nitrogen Base (Difco Lab.). Inoculum size was 1×10^5 cells/ml, and incubation was carried out for 3 days at 27° C. The MICs ([…]) are shown in Table 1. The reference compound is compound (IA) in U.S. Pat. No. 4,952,604. The compounds used are identified by reference to the Examples in which they were prepared.
(§3) The in vitro antifungal activities of the representative compounds of the present invention shown in Table 1 and Table 2 were measured by determining the minimal inhibitory concentrations (MIC: Method A) or 80% growth inhibition concentration (IC80 : Method B) respectively. MIC is defined as the concentration of an antifungal at which growth of fungi is not observed and IC80 is the concentration where cell turbidity measured at OD630 is reduced by 80%.
(§4) Antifungal activities were determined by either method A or B (see below) using microtest plates according NCCLS with minor modifications (Galgiani et at., Antimicrob. Agents Chemother. 33, 731 (1989)).
(§5) (Method A) The medium was solidified with 0.2% low melting point agarose and buffered to pH 7.0 with 0.25% K2 HPO4 in Yeast Nitrogen Base (Difco Lab.). Inoculum size was 1×10^5 cells/ml, and incubation was carried out for 3 days at 27° C. The reference compound is compound (IA) in U.S. Pat. No. 4,952,604.

Candida albicans = details: 3 days, 27° C.; for MIC: Candida albicans, 72 h; for Antifungal activity MIC: 1×10^5 cells/ml, pH 7.0
Protocol: as §1, §2, §3, §4, §5

Cryptococcus neoformans = details: 3 days, 27° C.; for MIC: Cryptococcus neoformans, 72 h; for Antifungal activity MIC: 1×10^5 cells/ml, pH 7.0
Protocol: as §1, §2, §3, §4, §5

[1] = pH 7, Aspergillus fumigatus CF1003, 1×10^5 cells/ml
[2] = pH 7, Aspergillus fumigatus CF1004, 1×10^5 cells/ml
[3] = pH 7, Aspergillus fumigatus CF1023, 1×10^5 cells/ml
[4] = pH 7, Candida albicans CY1002, 1×10^5 cells/ml
[5] = pH 7, Candida albicans CY1005, 1×10^5 cells/ml
[6] = pH 7, Candida albicans CY3003, 1×10^5 cells/ml
[7] = pH 7, Cryptococcus neoformans CY1057, 1×10^5 cells/ml
[8] = pH 7, Cryptococcus neoformans CY1059, 1×10^5 cells/ml
[9] = pH 7, Cryptococcus neoformans CY1061, 1×10^5 cells/ml

MIC (Aspergillus fumigatus; [1]) [µg/mL] | MIC (Aspergillus fumigatus; [2]) [µg/mL] | MIC (Aspergillus fumigatus; [3]) [µg/mL] | MIC (Candida albicans; [4]) [µg/mL] | MIC (Candida albicans; [5]) [µg/mL] | MIC (Candida albicans; [6]) [µg/mL] | MIC (Cryptococcus neoformans; [7]) [µg/mL] | MIC (Cryptococcus neoformans; [8]) [µg/mL] | MIC (Cryptococcus neoformans; [9]) [µg/mL] | Molecule | Antifungal activity MIC (Aspergillus fumigatus; Aspergillus fumigatus CF1003) [µg/mL] | Antifungal activity MIC (Aspergillus fumigatus; Aspergillus fumigatus CF1004) [µg/mL] | Antifungal activity MIC (Aspergillus fumigatus; Aspergillus fumigatus CF1023) [µg/mL] | Antifungal activity MIC (Candida albicans; Candida albicans CY1002) [µg/mL] | Antifungal activity MIC (Candida albicans; Candida albicans CY1005) [µg/mL] | Antifungal activity MIC (Candida albicans; Candida albicans CY3003) [µg/mL] | Antifungal activity MIC (Cryptococcus neoformans; Cryptococcus neoformans CY1057) [µg/mL] | Antifungal activity MIC (Cryptococcus neoformans; Cryptococcus neoformans CY1059) [µg/mL] | Antifungal activity MIC (Cryptococcus neoformans; Cryptococcus neoformans CY1061) [µg/mL]
100 | 200 | 50 | 50 | 50 | 25 | 6.25 | 12.5 | 12.5 | CCCCCCC/C=C/[C@@H]1OC[C@@H](OCc2ccccc2)[C@H](OC)[C@@H]1OC(=O)CN.O=C(O)C(F)(F)F [Example 31, (2S,3R,4S,5R)-5-benzyloxy-4-methoxy-2-[(E)-1-nonenyl]tetra-hydro-2H-pyran-3-yl glycinate trifluoroacetic acid salt] |  |  |  |  |  |  |  |  | 
25 (≈ 79.7 µM) | 6.25 (≈ 19.9 µM) | 6.25 (≈ 19.9 µM) | 12.5 (≈ 39.9 µM) | 12.5 (≈ 39.9 µM) | 12.5 (≈ 39.9 µM) | 3.13 (≈ 9.98 µM) | 6.25 (≈ 19.9 µM) | 6.25 (≈ 19.9 µM) | CCCCCCCCO[C@@H]1CCC(C)(C)C[C@H]1CC(O)CN (relative stereo) [Example 84, 1-[(1S^*,2R^*)-5,5-dimethyl-2-octyloxycyclohexyl]-3-amino-2-propanol] |  |  |  |  |  |  |  |  | 
3.13 (≈ 10.3 µM) | 12.5 (≈ 41.1 µM) | 12.5 (≈ 41.1 µM) | 50 (≈ 164 µM) | 25 (≈ 82.1 µM) | 25 (≈ 82.1 µM) | 3.13 (≈ 10.3 µM) | 6.25 (≈ 20.5 µM) | 3.13 (≈ 10.3 µM) | CCCCCCCCC[C@@H]1OC[C@H](C)C=C1Cn1ccnc1 [Example 59, 1-[[(2S,5R)-5,6-dihydro-5-methyl-2-nonyl-2H-pyran-3-yl]methyl]-1H-imidazole] |  |  |  |  |  |  |  |  | 
50 | 100 | 50 | 50 | 50 | 50 | 12.5 | 12.5 | 12.5 | CO[C@@H]1[C@H](OC(=O)CN)[C@H](CCCC(C)CCCC(C)C)OC[C@@H]1C.O=C(O)C(F)(F)F (stereo partly drawn) [Example 8, (2S,3R,4S,5S)-2-(4,8-dimethylnonyl)-4-methoxyl-5-methyltetrahydro-2H-pyran-3-yl glycinate trifluoroacetic acid salt] |  |  |  |  |  |  |  |  | 
100 | 100 | 50 | 100 | 50 | 50 | 3.13 | 3.13 | 12.5 | CCCCCCC/C=C\[C@@H]1OC[C@@H](C)[C@H](OC)[C@H]1OC(=O)CN.O=C(O)C(F)(F)F [Example 42, (2S,3R,4S,5R)-4-methoxy-5-methyl-2-[(Z)-1-nonenyl]tetrahydro-2H-pyran-3-yl glycinate trifluoroacetic acid salt] |  |  |  |  |  |  |  |  | 
50 | 50 | 50 | 25 | 25 | 50 | 12.5 | 12.5 | 12.5 | CCCCCCCCC[C@@H]1OC[C@H](C)[C@H](OCCC)[C@H]1OC(=O)CN [Example 23, 2S,3R,4S,5S)-5-methyl-2-nonyl-4-propoxytetrahydro-2-H-pyran-3-yl glycinate trifluoroacetic acid salt] |  |  |  |  |  |  |  |  | 
50 | 50 | 50 | 50 | 50 | 50 | 6.25 | 12.5 | 12.5 | CCCCCCC/C=C\[C@@H]1OC[C@H](C)[C@H](OCCC)[C@H]1OC(=O)CN [Example 22, (2S,3R,4S,5-S)-5-methyl-2-[(Z)-1-nonenyl]-4-prpoxy-tetrahydro-2H-pyran-3-ylglycinate trifluoroacetic acid salt] |  |  |  |  |  |  |  |  | 
25 | 25 | 25 | 50 | 25 | 25 | 25 | 50 | 50 | CCCCCCC/C=C/[C@@H]1OC[C@H](C)C2(OCCO2)[C@H]1OC(=O)CN.O=C(O)C(F)(F)F [Example 46, (6S,7S,10S)-10-methyl-7-[(E)-1-nonenyl]-1,4,8-trioxaspiro[4,5]decan-6-yl glycinate trifluoroacetic acid salt] |  |  |  |  |  |  |  |  | 
 |  |  |  |  |  |  |  |  | (2S,3R,4S,5R)-5-butoxy-4-methoxy-2-[(E)-1-nonenyl]tetra-hydro-2H-pyran-3-ylglycinate trifluoroacetic acid salt [Example 35] | 25 | 25 | 25 | 25 | 25 | 50 | 3.13 | 6.25 | 12.5
6.25 (≈ 17.8 µM) | 12.2 (≈ 34.9 µM) | 6.25 (≈ 17.8 µM) | 25 (≈ 71.3 µM) | 12.5 (≈ 35.7 µM) | 12.5 (≈ 35.7 µM) | 0.39 (≈ 1.11 µM) | 0.78 (≈ 2.23 µM) | 3.13 (≈ 8.93 µM) | CCCCCCCCO[C@@H]1CCC(C)(C)[C@H](OC)[C@@H]1Cn1ccnc1 [Example 68, 1-[[(1R,2R,6R)-2-methoxy-3,3-dimethyl-6-octyloxy-cyclohexyl]methyl]-1H-imidazole] |  |  |  |  |  |  |  |  | 
100 | 200 | 100 | 100 | 100 | 100 | 1.56 | 3.13 | 6.25 | CCCCCCC/C=C\[C@@H]1OC[C@H](C)[C@H](OC)[C@H]1OC(=O)CN [Example 1, (2S,3R,4S,5S)-4-methoxy-5-methyl-2-[(Z)-1-nonenyl]tetrahydro-2H-pyran-3-ylglycinate trifluoro acetic acid salt] |  |  |  |  |  |  |  |  | 
 |  |  |  |  |  |  |  |  | (2S,3R,4S,5S)-4-methoxy-5-methyl-2-[(E)-1-nonenyl]tetra-hydro-2H-pyran-3-ylglycinate trifluoroacetic acid salt [Example 24] | 50 | 25 | 50 | 50 | 100 | 50 | 25 | 25 | 50
25 | 12.5 | 25 | 200 | > 200 | > 200 | 1.56 | 3.13 | 6.25 | CCC/C=C/C=C/C=C\[C@@H]1OC[C@H](C)[C@H](OC)[C@H]1OC(=O)CN.O=CO [Example 12, (2S,3R,4S,5S)-4-methoxy-5-methyl-2-[(1Z,3E,5E)-1,3,5-nonatrienyl]tetrahydro-2H-pyran-3-yl glycinate formic acid salt] |  |  |  |  |  |  |  |  | 
50 | 100 | 50 | 100 | 100 | 50 | 6.25 | 12.5 | 12.5 | CCCCCCC/C=C\[C@@H]1OC[C@H](C)[C@H](OCC)[C@@H]1OC(=O)CN.O=C(O)C(F)(F)F [Example 27, (2S,3R,4S,5S)-4-ethoxy-5-methyl-2-[(Z)-1-nonenyl]tetrahydro-2H-pyran-3-yl glycinate trifluoroacetic acid salt] |  |  |  |  |  |  |  |  | 
50 | 100 | 50 | 50 | 25 | 25 | 12.5 | 12.5 | 25 | CCCCCCCCC[C@@H]1OC[C@H](C)[C@H](OC)[C@@H]1OC(=O)CN.O=CO [Example 5, (2S,3R,4S,5S)-4-methoxy-5-methyl-2-nonyl-tetrahydro-2H-pyran-3-yl glycinate formic acid salt] |  |  |  |  |  |  |  |  | 
